This is an account of results in patent US12606561B2, “Substituted pyrazolo[1,5-a][1,3,5]triazines as CDK inhibitors” (QURIENT CO., LTD., priority 2018, dated 2026).

One experiment addresses T1, CDK1/Cyclin B (Homo sapiens, UniProt P06493).
T1 construct: purchased Invitrogen PR4768C
In words: Enzymatic assay for CDK1 (LANCE Ultra kinase assay, FRET based). The experiment is classed as biochemical. As to conditions: ATP at Km; read-out: CDK1 enzymatic activity IC50. In outline: (§1)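 With ATP set at its Km, compounds were tested against purified CDK/cyclin complexes phosphorylating a ULight-labeled peptide. Signal came from FRET between the peptide and a Europium-labeled anti-phospho-antibody.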

The target in a further experiment is T2, CDK2/Cyclin A (Homo sapiens, UniProt P24941).
T2 construct: purchased Invitrogen PV6290
Put plainly: Enzymatic assay for CDK2 (LANCE Ultra kinase assay, FRET based). Conditions: ATP at Km. Type of experiment: biochemical. The method, boiled down:
(§2)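 Inhibition was measured at ATP Km with 68 nM ULight-MBP peptide and CDK2/Cyclin A ([…]) or CDK5/p25 ([…]), using 8-dose 4-fold compound dilutions from DMSO. Kinase reaction ran 60 min at 23° C, then Eu anti-phospho-MBP plus EDTA were added for another 60 min before the fluorescence read.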

A further experiment deals with T3, CDK5/p25 (Homo sapiens, UniProt Q00535).
T3 construct: purchased Invitrogen PR8543B
T3 sequence (Q00535 whole entry): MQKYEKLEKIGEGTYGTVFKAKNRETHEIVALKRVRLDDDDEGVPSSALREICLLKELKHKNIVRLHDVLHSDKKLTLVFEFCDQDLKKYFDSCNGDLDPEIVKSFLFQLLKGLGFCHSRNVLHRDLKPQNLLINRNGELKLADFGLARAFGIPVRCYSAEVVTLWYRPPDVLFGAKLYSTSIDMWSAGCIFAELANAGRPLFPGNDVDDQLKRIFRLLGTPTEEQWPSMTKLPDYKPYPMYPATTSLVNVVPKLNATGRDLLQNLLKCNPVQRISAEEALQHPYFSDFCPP
T3 sequence (Q15078 99-307 partner limits assumed): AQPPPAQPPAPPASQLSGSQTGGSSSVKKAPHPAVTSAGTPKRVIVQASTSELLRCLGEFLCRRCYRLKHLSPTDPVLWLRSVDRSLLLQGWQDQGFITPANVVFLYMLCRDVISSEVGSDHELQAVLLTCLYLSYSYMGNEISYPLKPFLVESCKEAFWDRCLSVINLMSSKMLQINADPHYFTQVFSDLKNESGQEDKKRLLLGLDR
Put plainly: Enzymatic assay for CDK5 (LANCE Ultra kinase assay, FRET based). Conditions: ATP at Km. The experiment is classed as biochemical. The method, boiled down: as §2

In another experiment the target is T4, CDK7/Cyclin H/MNAT1 (Homo sapiens, UniProt P50613).
T4 construct: purchased Invitrogen PR6749B
T4 sequence (P50613 whole entry): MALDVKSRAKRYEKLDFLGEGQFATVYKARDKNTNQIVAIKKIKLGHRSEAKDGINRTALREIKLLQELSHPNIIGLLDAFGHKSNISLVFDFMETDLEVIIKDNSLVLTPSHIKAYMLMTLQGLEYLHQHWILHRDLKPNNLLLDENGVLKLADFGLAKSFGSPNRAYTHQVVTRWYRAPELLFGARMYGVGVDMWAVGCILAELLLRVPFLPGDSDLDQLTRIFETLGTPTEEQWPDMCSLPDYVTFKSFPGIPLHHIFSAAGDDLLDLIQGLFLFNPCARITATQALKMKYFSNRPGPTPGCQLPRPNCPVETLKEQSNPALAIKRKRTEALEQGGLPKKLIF
T4 sequence (P51946 whole entry partner): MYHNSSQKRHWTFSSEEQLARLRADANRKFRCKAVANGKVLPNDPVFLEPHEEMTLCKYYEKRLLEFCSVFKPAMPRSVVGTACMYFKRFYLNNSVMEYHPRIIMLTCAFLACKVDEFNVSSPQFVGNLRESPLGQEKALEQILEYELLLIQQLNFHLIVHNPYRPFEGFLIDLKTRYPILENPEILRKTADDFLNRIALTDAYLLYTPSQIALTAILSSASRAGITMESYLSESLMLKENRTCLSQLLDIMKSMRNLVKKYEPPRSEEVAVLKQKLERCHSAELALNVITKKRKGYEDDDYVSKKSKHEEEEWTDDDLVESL
T4 sequence (P51948 whole entry partner): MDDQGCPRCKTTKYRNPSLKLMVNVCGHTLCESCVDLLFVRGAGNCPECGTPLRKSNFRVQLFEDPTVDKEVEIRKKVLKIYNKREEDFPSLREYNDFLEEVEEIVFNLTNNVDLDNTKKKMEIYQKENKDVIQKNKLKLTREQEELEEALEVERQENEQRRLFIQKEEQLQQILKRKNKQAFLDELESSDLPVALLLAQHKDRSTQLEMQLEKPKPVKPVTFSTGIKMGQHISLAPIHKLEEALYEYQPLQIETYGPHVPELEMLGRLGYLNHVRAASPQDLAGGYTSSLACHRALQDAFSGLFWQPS
In words: Enzymatic assay for CDK7 (LANCE Ultra kinase assay, FRET based). Type of experiment: biochemical. Conditions: for IC50: ATP at Km. In outline: as §1

In another experiment the test system is A2780. In words: A2780 viability assay (CellTiter-Glo, 72 hours). Conditions: Homo sapiens; A2780 cells. Type of experiment: cell-based. In outline: (§3)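 After a 24 h attachment period, cells received a 0.0015–10 uM compound titration and were incubated 72 h at 37° C, 5% CO2. Viability came from CellTiter-Glo luminescence measured in duplicate.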
A further experiment has as its system OVCAR-3. In words: OVCAR-3 viability assay (CellTiter-Glo, 72 hours). As to conditions: Homo sapiens; OVCAR-3 cells. The experiment is classed as cell-based. In outline:
as §3

T1 sequence (P06493 whole entry): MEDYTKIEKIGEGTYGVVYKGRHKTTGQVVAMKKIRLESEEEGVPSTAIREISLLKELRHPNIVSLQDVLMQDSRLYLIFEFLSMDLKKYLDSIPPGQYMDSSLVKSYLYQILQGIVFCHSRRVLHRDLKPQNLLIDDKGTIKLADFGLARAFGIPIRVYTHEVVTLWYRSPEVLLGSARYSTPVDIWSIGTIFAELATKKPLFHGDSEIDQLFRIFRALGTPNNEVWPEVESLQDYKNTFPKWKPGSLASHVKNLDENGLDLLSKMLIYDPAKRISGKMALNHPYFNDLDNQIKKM
T1 sequence (P14635 whole entry partner): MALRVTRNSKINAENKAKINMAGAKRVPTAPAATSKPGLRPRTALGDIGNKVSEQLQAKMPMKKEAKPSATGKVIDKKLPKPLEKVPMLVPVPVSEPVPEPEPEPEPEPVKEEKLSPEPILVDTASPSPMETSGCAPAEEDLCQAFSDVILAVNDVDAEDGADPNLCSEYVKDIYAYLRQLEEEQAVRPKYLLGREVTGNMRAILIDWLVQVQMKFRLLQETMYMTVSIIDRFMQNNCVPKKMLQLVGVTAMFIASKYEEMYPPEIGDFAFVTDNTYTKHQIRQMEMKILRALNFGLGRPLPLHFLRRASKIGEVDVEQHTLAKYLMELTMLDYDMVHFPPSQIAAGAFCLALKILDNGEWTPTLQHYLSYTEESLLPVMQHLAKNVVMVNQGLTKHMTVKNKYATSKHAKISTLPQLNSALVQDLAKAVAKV

As to `C=CC(=O)Nc1ccc2c(-c3ccccc3CNc3nc(Oc4cccnc4)nc4c(C(C)C)cnn34)nccc2c1` [Compound 182], the IC50 was over 1000 nM on CDK1/Cyclin B; over 1000 nM against CDK2/Cyclin A; over 1000 nM against CDK5/p25; 100 to 1000 nM against CDK7/Cyclin H/MNAT1; under 1000 nM in the experiment on A2780; 1000 to 10000 nM in the experiment with OVCAR-3. Also, the “CDK1/CDK7: Selectivity of CDK7 inhibition over CDK1 inhibition” value at CDK7/Cyclin H/MNAT1 is “B (B indicates 50 < [fold] ≤ 500)”. Also, at CDK7/Cyclin H/MNAT1, the “CDK2/CDK7: Selectivity of CDK7 inhibition over CDK2 inhibition” value was “B (B indicates 50 < [fold] ≤ 500)”. The “CDK5/CDK7: Selectivity of CDK7 inhibition over CDK5 inhibition” value on CDK7/Cyclin H/MNAT1 is “B (B indicates 50 < [fold] ≤ 500)”.

As for `C=CC(=O)Nc1ccc2c(-c3ccccc3CNc3cc(N4C5CCC4CC(OC)C5)nc4c(C(C)C)cnn34)nccc2c1` (stereo not drawn) [Compound 119], the IC50 on CDK1/Cyclin B was over 1000 nM; against CDK2/Cyclin A it was over 1000 nM; against CDK5/p25, over 1000 nM; against CDK7/Cyclin H/MNAT1, 100 to 1000 nM; in the experiment on A2780 it was under 1000 nM; with OVCAR-3, under 1000 nM. Moreover, at CDK7/Cyclin H/MNAT1, the “CDK1/CDK7: Selectivity of CDK7 inhibition over CDK1 inhibition” value is “B (B indicates 50 < [fold] ≤ 500)”. Besides, at CDK7/Cyclin H/MNAT1, the “CDK2/CDK7: Selectivity of CDK7 inhibition over CDK2 inhibition” value was “B (B indicates 50 < [fold] ≤ 500)”. Further, on CDK7/Cyclin H/MNAT1, the “CDK5/CDK7: Selectivity of CDK7 inhibition over CDK5 inhibition” value was “B (B indicates 50 < [fold] ≤ 500)”.

Regarding `C=C(F)C(=O)Nc1ccc2c(-c3ccccc3CNc3nc(N4CCC(F)CC4)nc4c(C(C)C)cnn34)nccc2c1` [Compound 90], the IC50 on CDK1/Cyclin B was over 1000 nM; at CDK2/Cyclin A it was over 1000 nM; at CDK5/p25 it was over 1000 nM; on CDK7/Cyclin H/MNAT1, 100 to 1000 nM; in the experiment on A2780, under 1000 nM; with OVCAR-3 it was under 1000 nM. Further, on CDK7/Cyclin H/MNAT1, the “CDK1/CDK7: Selectivity of CDK7 inhibition over CDK1 inhibition” value is “B (B indicates 50 < [fold] ≤ 500)”. The “CDK2/CDK7: Selectivity of CDK7 inhibition over CDK2 inhibition” value on CDK7/Cyclin H/MNAT1 was “B (B indicates 50 < [fold] ≤ 500)”. The “CDK5/CDK7: Selectivity of CDK7 inhibition over CDK5 inhibition” value on CDK7/Cyclin H/MNAT1 was “B (B indicates 50 < [fold] ≤ 500)”.

`C=CC(=O)Nc1ccc2c(-c3ccccc3CNc3nc(NC[C@H]4CNC[C@@H]4O)nc4c(C(C)C)cnn34)nccc2c1` [Compound 111]: the IC50 at CDK1/Cyclin B is over 1000 nM; against CDK2/Cyclin A it was over 1000 nM; against CDK5/p25, over 1000 nM; at CDK7/Cyclin H/MNAT1, under 100 nM; with A2780, under 1000 nM; in the experiment with OVCAR-3 it was under 1000 nM. Further, at CDK7/Cyclin H/MNAT1, the “CDK1/CDK7: Selectivity of CDK7 inhibition over CDK1 inhibition” value was “A (A indicates [fold] > 500)”. Moreover, the “CDK2/CDK7: Selectivity of CDK7 inhibition over CDK2 inhibition” value on CDK7/Cyclin H/MNAT1 was “A (A indicates [fold] > 500)”. At CDK7/Cyclin H/MNAT1, the “CDK5/CDK7: Selectivity of CDK7 inhibition over CDK5 inhibition” value is “A (A indicates [fold] > 500)”.

Consider `C=C(F)C(=O)Nc1ccc2c(-c3ccccc3CNc3nc(O[C@H]4CCCNC4)nc4c(C(C)C)cnn34)nccc2c1` [Compound 159], for which the IC50 at CDK1/Cyclin B is over 1000 nM; against CDK2/Cyclin A, over 1000 nM; against CDK5/p25, over 1000 nM; against CDK7/Cyclin H/MNAT1, 100 to 1000 nM; in the experiment with A2780 it was under 1000 nM; in the experiment with OVCAR-3 it was 1000 to 10000 nM. Besides, at CDK7/Cyclin H/MNAT1, the “CDK1/CDK7: Selectivity of CDK7 inhibition over CDK1 inhibition” value was “B (B indicates 50 < [fold] ≤ 500)”. The “CDK2/CDK7: Selectivity of CDK7 inhibition over CDK2 inhibition” value on CDK7/Cyclin H/MNAT1 was “B (B indicates 50 < [fold] ≤ 500)”. The “CDK5/CDK7: Selectivity of CDK7 inhibition over CDK5 inhibition” value on CDK7/Cyclin H/MNAT1 is “B (B indicates 50 < [fold] ≤ 500)”.

With `CC(C)c1cnn2c(NCc3ccccc3-c3nccc4cc(NC(=O)/C=C/CN(C)C)ccc34)nc(N3CC4CCC(C3)N4C)nc12` [Compound 123], the IC50 on CDK1/Cyclin B is over 1000 nM; on CDK2/Cyclin A, over 1000 nM; against CDK5/p25, over 1000 nM; against CDK7/Cyclin H/MNAT1, under 100 nM; in the experiment with A2780, under 1000 nM; in the experiment on OVCAR-3, under 1000 nM. The “CDK1/CDK7: Selectivity of CDK7 inhibition over CDK1 inhibition” value on CDK7/Cyclin H/MNAT1 was “A (A indicates [fold] > 500)”. Besides, the “CDK2/CDK7: Selectivity of CDK7 inhibition over CDK2 inhibition” value on CDK7/Cyclin H/MNAT1 was “A (A indicates [fold] > 500)”. Further, the “CDK5/CDK7: Selectivity of CDK7 inhibition over CDK5 inhibition” value on CDK7/Cyclin H/MNAT1 was “A (A indicates [fold] > 500)”.

As for `C=C(F)C(=O)Nc1ccc2c(-c3ccccc3CNc3nc(N4CCC(OCC)CC4)nc4c(C(C)C)cnn34)nccc2c1` [Compound 85], the IC50 is over 1000 nM on CDK1/Cyclin B; over 1000 nM against CDK2/Cyclin A; over 1000 nM on CDK5/p25; 100 to 1000 nM at CDK7/Cyclin H/MNAT1; under 1000 nM in the experiment on A2780; under 1000 nM with OVCAR-3. For the same compound, at CDK7/Cyclin H/MNAT1, the “CDK1/CDK7: Selectivity of CDK7 inhibition over CDK1 inhibition” value is “B (B indicates 50 < [fold] ≤ 500)”. For the same compound, the “CDK2/CDK7: Selectivity of CDK7 inhibition over CDK2 inhibition” value at CDK7/Cyclin H/MNAT1 is “B (B indicates 50 < [fold] ≤ 500)”. The “CDK5/CDK7: Selectivity of CDK7 inhibition over CDK5 inhibition” value on CDK7/Cyclin H/MNAT1 was “B (B indicates 50 < [fold] ≤ 500)”.

With `C=C(F)C(=O)Nc1ccc2c(-c3ccccc3CNc3nc(N[C@H]4CCC(C)(C)NC4)nc4c(C(C)C)cnn34)nccc2c1` [Compound 171], the IC50 on CDK1/Cyclin B is over 1000 nM; at CDK2/Cyclin A, over 1000 nM; on CDK5/p25, over 1000 nM; against CDK7/Cyclin H/MNAT1, under 100 nM; with A2780 it was under 1000 nM; in the experiment with OVCAR-3, under 1000 nM. For the same compound, the “CDK1/CDK7: Selectivity of CDK7 inhibition over CDK1 inhibition” value on CDK7/Cyclin H/MNAT1 is “A (A indicates [fold] > 500)”. Moreover, on CDK7/Cyclin H/MNAT1, the “CDK2/CDK7: Selectivity of CDK7 inhibition over CDK2 inhibition” value was “A (A indicates [fold] > 500)”. The “CDK5/CDK7: Selectivity of CDK7 inhibition over CDK5 inhibition” value at CDK7/Cyclin H/MNAT1 is “A (A indicates [fold] > 500)”.

For the compound `COC1CC2CCC(C1)N2c1cc(NCc2ccccc2-c2nccc3cc(NC(=O)/C=C/CN(C)C)ccc23)n2ncc(C(C)C)c2n1` (stereo not drawn) [Compound 125], the IC50 on CDK1/Cyclin B is over 1000 nM; against CDK2/Cyclin A it was over 1000 nM; at CDK5/p25, over 1000 nM; on CDK7/Cyclin H/MNAT1, 100 to 1000 nM; in the experiment on A2780 it was under 1000 nM; in the experiment on OVCAR-3, under 1000 nM. Also, the “CDK1/CDK7: Selectivity of CDK7 inhibition over CDK1 inhibition” value at CDK7/Cyclin H/MNAT1 was “B (B indicates 50 < [fold] ≤ 500)”. Also, the “CDK2/CDK7: Selectivity of CDK7 inhibition over CDK2 inhibition” value on CDK7/Cyclin H/MNAT1 was “B (B indicates 50 < [fold] ≤ 500)”. At CDK7/Cyclin H/MNAT1, the “CDK5/CDK7: Selectivity of CDK7 inhibition over CDK5 inhibition” value is “B (B indicates 50 < [fold] ≤ 500)”.

Regarding `CO[C@H]1CC[C@H](Nc2nc(NCc3c(C)cccc3-c3ccc4cccc(NC(=O)/C=C/CN(C)C)c4n3)n3ncc(C(C)C)c3n2)CC1` [Compound 127], the IC50 is over 1000 nM on CDK1/Cyclin B; over 1000 nM at CDK2/Cyclin A; over 1000 nM at CDK5/p25; 100 to 1000 nM at CDK7/Cyclin H/MNAT1; under 1000 nM in the experiment with A2780; under 1000 nM in the experiment with OVCAR-3. The “CDK1/CDK7: Selectivity of CDK7 inhibition over CDK1 inhibition” value on CDK7/Cyclin H/MNAT1 was “B (B indicates 50 < [fold] ≤ 500)”. Also, on CDK7/Cyclin H/MNAT1, the “CDK2/CDK7: Selectivity of CDK7 inhibition over CDK2 inhibition” value is “B (B indicates 50 < [fold] ≤ 500)”. In addition, the “CDK5/CDK7: Selectivity of CDK7 inhibition over CDK5 inhibition” value on CDK7/Cyclin H/MNAT1 is “B (B indicates 50 < [fold] ≤ 500)”.

`CC(C)c1cnn2c(NCc3ccccc3-c3nccc4cc(NC(=O)/C=C/CN(C)C)ccc34)nc(N3CCc4sccc4C3)nc12` [Compound 101]: the concentration for half-maximal inhibition (IC50) at CDK1/Cyclin B was over 1000 nM; at CDK2/Cyclin A, over 1000 nM; against CDK5/p25 it was over 1000 nM; against CDK7/Cyclin H/MNAT1 it was 100 to 1000 nM; with A2780 it was under 1000 nM; in the experiment with OVCAR-3 it was under 1000 nM. The “CDK1/CDK7: Selectivity of CDK7 inhibition over CDK1 inhibition” value at CDK7/Cyclin H/MNAT1 was “B (B indicates 50 < [fold] ≤ 500)”. On CDK7/Cyclin H/MNAT1, the “CDK2/CDK7: Selectivity of CDK7 inhibition over CDK2 inhibition” value was “B (B indicates 50 < [fold] ≤ 500)”. Further, the “CDK5/CDK7: Selectivity of CDK7 inhibition over CDK5 inhibition” value on CDK7/Cyclin H/MNAT1 was “B (B indicates 50 < [fold] ≤ 500)”.
